Values of other authors, collected in US20120053222A1, “Novel Metabolic Disease Therapy” (priority 2009, published 2012).

System: ob/ob mice
Details: injection

Substance: exendin 4
- liver steatosis: diminishes liver steatosis
